Assay results published in ChEMBL document CHEMBL1949583, “Credneramides A and B: neuromodulatory phenethylamine and isopentylamine derivatives of a vinyl chloride-containing fatty acid from cf. Trichodesmium sp. nov” (J Nat Prod, 2012).

assay: Neuromodulatory activity in mouse cerebrocortical neurons assessed as inhibition of calcium oscillation; format: functional; details: Cerebral cortex neuron

Row | SMILES | IC50
1 | CCC/C(=C\Cl)C/C=C/CCC(=O)NCCC(C)C [CREDNERAMIDE B] | 3.9 µM
2 | CCC/C(=C\Cl)C/C=C/CCC(=O)NCCc1ccccc1 [CREDNERAMIDE A] | 4 µM
3 | CCC/C(=C\Cl)C/C=C/CCC(=O)O [CREDNERIC ACID] | 8.2 µM
